In ChEMBL document CHEMBL1158760, “Chromenes from the brown alga Sargassum siliquastrum” (J Nat Prod, 2005):

Target: Cholinesterase (Homo sapiens) (UniProt P06276)
Test: Inhibition of butylcholine esterase at 100 ug/mL

Sequence of Cholinesterase (Homo sapiens) (P06276 whole entry): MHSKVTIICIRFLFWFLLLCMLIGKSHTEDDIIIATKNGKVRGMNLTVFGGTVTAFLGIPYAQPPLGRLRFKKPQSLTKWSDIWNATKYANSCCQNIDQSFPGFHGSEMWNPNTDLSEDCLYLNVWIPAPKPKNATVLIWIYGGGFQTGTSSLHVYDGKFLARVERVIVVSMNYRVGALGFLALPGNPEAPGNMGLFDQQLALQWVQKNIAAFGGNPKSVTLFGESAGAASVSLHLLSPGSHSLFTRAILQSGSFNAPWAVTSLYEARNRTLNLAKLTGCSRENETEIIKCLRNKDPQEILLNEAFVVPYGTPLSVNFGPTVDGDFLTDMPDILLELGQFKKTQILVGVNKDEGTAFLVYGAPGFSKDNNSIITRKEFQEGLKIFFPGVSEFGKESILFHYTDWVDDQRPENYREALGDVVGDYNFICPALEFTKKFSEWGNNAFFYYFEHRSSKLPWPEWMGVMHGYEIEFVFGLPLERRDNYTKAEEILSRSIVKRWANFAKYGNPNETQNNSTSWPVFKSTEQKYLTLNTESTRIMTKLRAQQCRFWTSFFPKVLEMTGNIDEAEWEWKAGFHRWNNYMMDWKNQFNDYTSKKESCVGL

SMILES | inhibition [%]
CC(C)=CC(C(=O)O)/C(C)=C/CC/C(C)=C/CC[C@]1(C)CCc2cc(O)cc(C)c2O1 (some centres not stated) | 80
CC(C)=C[C@@H](O)C(=O)/C(C)=C/CC/C(C)=C/CC[C@]1(C)CCc2cc(O)cc(C)c2O1 | 82.7
